From patent publication US20240368230A1, “CELL-PENETRATING PEPTIDES COMPRISING MULTIPLE 5-MER ALPHA-HELIX FRAGMENTS AND USES THEREOF” (ArtProBio Co., Ltd., priority 2023, published 2024)
Blank lines part the entries; values can stand above or below the compound they belong to. Where a SMILES comes first, the peptide text is derived from it. Where no end group is shown, it is not given here. [ ]: non-standard residue; d: D form. Aib = CC(C)(N)C(=O)O

What was measured:
[1] = test system: BALB/c nude mice; assay: In-vivo fluorescence imaging (IVIS) of living mice, targeting; settings: FAM-labeled, IV 5 mg/kg, 4 hours; for in-vivo targeting site: 200 μL; for bioaccumulation / targeting activity in the body: comparison with existing CPPs
Experimental: All animal experimental procedures including sample administration and euthanasia were performed in accordance with the strict guidelines of the Yonsei University Health System Institutional Animal Care and Use Committee. Female 7-week BALB/c nude mice were purchased from Orient Bio Company (Korea). Fluorescence-labeled peptide (sample) (10 mg/kg) was injected via the lateral tail vein of the mice. Fluorescence images were acquired at different times (0, 4, 8 and 12 hours) using an in-vivo imaging system (IVIS; PerkinElmer, USA) and the images were analyzed with the Living Image software (PerkinElmer).
Female 7-week-old BALB/c nude mice were injected IV (intravenously) with the cell-penetrating peptide prepared in Example 10 (CPP10) at 10 mg/kg or 1 mg/kg via the lateral tail vein and imaged using IVIS (in-vivo imaging system) (PerkinElmer, USA) 4 hours later. The images were analyzed with the Living Image software (PerkinElmer). The mice were analyzed from the top, bottom (belly) and side positions (FIG. 44A). Then, after administering the same volume of the cell-penetrating peptide prepared in Example 10 (CPP10) at 10 mg/kg via IV (intravenous) or IP (intraperitoneal) injection, the mice were imaged 4 hours later (FIG. 44B).
Next, female 7-week-old BALB/c nude mice were injected IV (intravenously) with the cell-penetrating peptide of Example 10 (CPP10), the cell-penetrating peptide of Example 11 (CPP11) or the cell-penetrating peptide of Example 14 (CPP11d) at 10 mg/kg via the lateral tail vein, and they were imaged 30 minutes and 6 hours later using IVIS (in-vivo imaging system) (PerkinElmer, USA). The images were analyzed with the Living Image software (PerkinElmer) (FIG. 44C). In FIGS. 44A and 44B, the cell-penetrating peptides were labeled with TAMRA (5 (6)-carboxytetramethylrhodamine). In FIG. 44C, the cell-penetrating peptides were labeled with FAM.
The images were analyzed with the Living Image software (PerkinElmer) (FIGS. 50 and 51).
The cell-penetrating peptide prepared in Example 11 (CPP11) was also administered at the same concentration and then analyzed by IVIS 1 hour later (FIG. 51). The cell-penetrating peptide was used after labeling with FAM.
4 hours later, the mice were imaged using IVIS (in-vivo imaging system) (PerkinElmer, USA) and the images were analyzed with the Living Image software (PerkinElmer) (FIG. 53).
The cell-penetrating peptide prepared in Example 11 (CPP11) was also administered at the same concentration and then analyzed by IVIS 1 hour later (FIG. 53). The cell-penetrating peptide was used after labeling with FAM.
Female 7-week-old BALB/c nude mice were injected IV (intravenously) with 200 μL of the cell-penetrating peptide of Example 11 (CPP11) or the existing cell-penetrating peptides (Rev ARM, Tat, penetratin and R8) at 5 mg/kg via the lateral tail vein. 4 hours later, the mice were imaged using IVIS (in-vivo imaging system) (PerkinElmer, USA) and the images were analyzed with the Living Image software (PerkinElmer) (FIGS. 54 and 55). The cell-penetrating peptides were used after labeling with FAM.

[2] = CD spectroscopy of cell-penetrating peptides (helicity); settings: for helicity ([θ]222/[θ]208): CD spectra; for secondary structure / helix stabilization by CD: 10 mM potassium phosphate, pH 7.4, 20° C.
Experimental: The concentration of peptides/proteins was 5-20 μM in general. Spectra were obtained using a Jasco J-1500 CD spectrometer (JASCO, Japan) or a Chirascan CD spectrometer (Applied Photophysics, UK). Scanning was carried out using a cuvette with a path length of 1 mm. MRE (mean residue ellipticity) was calculated per amino acid residue.
The cell-penetrating peptides (CPP1 TO 13 and CPP11d) were dissolved respectively in 10 mM potassium phosphate. The analysis was performed under the condition of pH 7.4 and 20° C.

- in-vivo targeting site [1]: target the ear
- helicity ([θ]222/[θ]208) [2]: ≥ 0.7
- helicity ([θ]222/[θ]208) ([2]; listed as Example 20): 0.706
Compound: C[C@H](NC(=O)[C@H](CCC(N)=O)NC(=O)C(C)(C)NC(=O)CNC(=O)C(C)(C)NC(=O)[C@H](CC(N)=O)NC(=O)[C@H](CCCNC(=N)N)NC(=O)[C@H](CCCNC(=N)N)NC(=O)[C@H](C)NC(=O)[C@H](CCC(N)=O)NC(=O)C(C)(C)NC(=O)[C@H](C)NC(=O)C(C)(C)NC(=O)[C@H](CC(N)=O)NC(=O)[C@H](CCCNC(=N)N)NC(=O)[C@H](CCCNC(=N)N)NC(=O)[C@H](C)NC(=O)[C@H](CCC(N)=O)NC(=O)C(C)(C)NC(=O)[C@H](C)NC(=O)C(C)(C)NC(=O)[C@H](CC(N)=O)NC(=O)[C@H](CCCNC(=N)N)NC(=O)[C@H](CCCNC(=N)N)NC(=O)[C@H](C)NC(=O)[C@H](CCC(N)=O)NC(=O)C(C)(C)NC(=O)[C@H](C)NC(=O)C(C)(C)N)C(=O)N[C@@H](CCCNC(=N)N)C(=O)N[C@@H](CCCNC(=N)N)C(=O)N[C@@H](CC(N)=O)C(=O)NC(C)(C)C(=O)N[C@@H](C)C(=O)NC(C)(C)C(N)=O [CPP19] (HELM PEPTIDE1{[Aib].A.[Aib].Q.A.R.R.N.[Aib].A.[Aib].Q.A.R.R.N.[Aib].A.[Aib].Q.A.R.R.N.[Aib].G.[Aib].Q.A.R.R.N.[Aib].A.[Aib].[am]}$$$$V2.0; N-terminus assumed)

- in-vivo targeting site [1]: target the ear
- helicity ([θ]222/[θ]208) ([2]; listed as Example 21): 0.565
Compound: C[C@H](NC(=O)[C@H](CCC(N)=O)NC(=O)C(C)(C)NC(=O)CNC(=O)C(C)(C)NC(=O)[C@H](CC(N)=O)NC(=O)[C@H](CCCNC(=N)N)NC(=O)[C@H](CCCNC(=N)N)NC(=O)[C@H](C)NC(=O)[C@H](CCC(N)=O)NC(=O)C(C)(C)NC(=O)[C@H](C)NC(=O)C(C)(C)NC(=O)[C@H](CC(N)=O)NC(=O)[C@H](CCCNC(=N)N)NC(=O)[C@H](CCCNC(=N)N)NC(=O)[C@H](C)NC(=O)[C@H](CCC(N)=O)NC(=O)C(C)(C)NC(=O)[C@H](C)NC(=O)C(C)(C)N)C(=O)N[C@@H](CCCNC(=N)N)C(=O)N[C@@H](CCCNC(=N)N)C(=O)N[C@@H](CC(N)=O)C(=O)NC(C)(C)C(=O)NCC(=O)NC(C)(C)C(=O)N[C@@H](CCC(N)=O)C(=O)N[C@@H](C)C(=O)N[C@@H](CCCNC(=N)N)C(=O)N[C@@H](CCCNC(=N)N)C(=O)N[C@@H](CC(N)=O)C(=O)NC(C)(C)C(=O)N[C@@H](C)C(=O)NC(C)(C)C(N)=O [CPP20] (HELM PEPTIDE1{[Aib].A.[Aib].Q.A.R.R.N.[Aib].A.[Aib].Q.A.R.R.N.[Aib].G.[Aib].Q.A.R.R.N.[Aib].G.[Aib].Q.A.R.R.N.[Aib].A.[Aib].[am]}$$$$V2.0; N-terminus assumed)
- accumulation efficiency in the ear ([1]; among CPP19 to 21): much superior accumulation efficiency in the ear

- in-vivo targeting site [1]: target the ear
- helicity ([θ]222/[θ]208) ([2]; listed as Example 22): 0.500
Compound: C[C@H](NC(=O)[C@H](CCC(N)=O)NC(=O)C(C)(C)NC(=O)CNC(=O)C(C)(C)NC(=O)[C@H](CC(N)=O)NC(=O)[C@H](CCCNC(=N)N)NC(=O)[C@H](CCCNC(=N)N)NC(=O)[C@H](C)NC(=O)[C@H](CCC(N)=O)NC(=O)C(C)(C)NC(=O)CNC(=O)C(C)(C)NC(=O)[C@H](CC(N)=O)NC(=O)[C@H](CCCNC(=N)N)NC(=O)[C@H](CCCNC(=N)N)NC(=O)[C@H](C)NC(=O)[C@H](CCC(N)=O)NC(=O)C(C)(C)NC(=O)[C@H](C)NC(=O)C(C)(C)N)C(=O)N[C@@H](CCCNC(=N)N)C(=O)N[C@@H](CCCNC(=N)N)C(=O)N[C@@H](CC(N)=O)C(=O)NC(C)(C)C(=O)NCC(=O)NC(C)(C)C(=O)N[C@@H](CCC(N)=O)C(=O)N[C@@H](C)C(=O)N[C@@H](CCCNC(=N)N)C(=O)N[C@@H](CCCNC(=N)N)C(=O)N[C@@H](CC(N)=O)C(=O)NC(C)(C)C(=O)N[C@@H](C)C(=O)NC(C)(C)C(N)=O [CPP21] (HELM PEPTIDE1{[Aib].A.[Aib].Q.A.R.R.N.[Aib].G.[Aib].Q.A.R.R.N.[Aib].G.[Aib].Q.A.R.R.N.[Aib].G.[Aib].Q.A.R.R.N.[Aib].A.[Aib].[am]}$$$$V2.0; N-terminus assumed)

Compound: N=C(N)NCCC[C@H](NC(=O)[C@H](CCCNC(=N)N)NC(=O)[C@H](CCCNC(=N)N)NC(=O)[C@H](CCC(N)=O)NC(=O)[C@H](CCCNC(=N)N)NC(=O)[C@H](CCCNC(=N)N)NC(=O)[C@H](CCCCN)NC(=O)[C@H](CCCCN)NC(=O)[C@H](CCCNC(=N)N)NC(=O)CNC(=O)[C@@H](N)Cc1ccc(O)cc1)C(N)=O [Tat, Tyr-Gly-Arg-Lys-Lys-Arg-Arg-Gln-Arg-Arg-Arg, reference compound]
- bioaccumulation [1]: did not show significant bioaccumulation
- targeting activity in the body [1]: did not show targeting activity for specific sites in the body

Compound: AUAUARQARRNRQARRNRQARRNAUAUA (A[Aib]A[Aib]ARQARRNRQARRNRQARRNA[Aib]A[Aib]A; not fully specified (C-terminus)) [CPP4]
- secondary structure / helix stabilization by CD [2]: helical structure was somewhat stabilized

Compound: QARRNQARRNQARRNQARRN [CPP6]
- secondary structure / helix stabilization by CD [2]: mostly in random coil state

Compound: QARRNQARRNQARRNQARRNQARRN [CPP7]
- secondary structure / helix stabilization by CD [2]: mostly in random coil state

Compound: RRRRRRRR [R8, reference compound]
- bioaccumulation [1]: did not show significant bioaccumulation
- targeting activity in the body [1]: did not show targeting activity for specific sites in the body

Compound: TRQARRNRRRRWRERQR [Rev ARM, reference compound]
- bioaccumulation [1]: did not show significant bioaccumulation
- targeting activity in the body [1]: did not show targeting activity for specific sites in the body

Compound: UAUNARRQUAUNARRQUAUNARRQUAUNARRQUAU ([Aib]A[Aib]NARRQ[Aib]A[Aib]NARRQ[Aib]A[Aib]NARRQ[Aib]A[Aib]NARRQ[Aib]A[Aib]-NH2) [CPP18]
- helicity ([θ]222/[θ]208) [2]: 0.72

Compound: UAUNRARQUAUNRARQUAUNRARQUAUNRARQUAU ([Aib]A[Aib]NRARQ[Aib]A[Aib]NRARQ[Aib]A[Aib]NRARQ[Aib]A[Aib]NRARQ[Aib]A[Aib]-NH2) [CPP17]
- helicity ([θ]222/[θ]208) [2]: 0.78

Compound: UAUNRRAQUAUNRRAQUAUNRRAQUAUNRRAQUAU ([Aib]A[Aib]NRRAQ[Aib]A[Aib]NRRAQ[Aib]A[Aib]NRRAQ[Aib]A[Aib]NRRAQ[Aib]A[Aib]-NH2) [CPP16]
- helicity ([θ]222/[θ]208) [2]: 0.66

Compound: UAUQARRNUAUQARRNUAUQARRNUAUQARRNUAUQARRNUAU ([Aib]A[Aib]QARRN[Aib]A[Aib]QARRN[Aib]A[Aib]QARRN[Aib]A[Aib]QARRN[Aib]A[Aib]QARRN[Aib]A[Aib]; not fully specified) [CPP13]
- secondary structure / helix stabilization by CD [2]: not further increased

Compound: UAUQRARNUAUQRARNUAUQRARNUAUQRARNUAU ([Aib]A[Aib]QRARN[Aib]A[Aib]QRARN[Aib]A[Aib]QRARN[Aib]A[Aib]QRARN[Aib]A[Aib]-NH2; not fully specified) [CPP14]
- helicity ([θ]222/[θ]208) [2]: 0.81

Compound: UAUQRRANUAUQRRANUAUQRRANUAUQRRANUAU ([Aib]A[Aib]QRRAN[Aib]A[Aib]QRRAN[Aib]A[Aib]QRRAN[Aib]A[Aib]QRRAN[Aib]A[Aib]-NH2; not fully specified) [CPP15]
- helicity ([θ]222/[θ]208) [2]: 0.66

Compound: UAURQARRNUAURQARRNUAURQARRNUAURQARRNUAU ([Aib]A[Aib]RQARRN[Aib]A[Aib]RQARRN[Aib]A[Aib]RQARRN[Aib]A[Aib]RQARRN[Aib]A[Aib]; not fully specified (C-terminus)) [CPP5]
- secondary structure / helix stabilization by CD [2]: helical structure was somewhat stabilized
